The results in this text go back to patent publication US5238936A, “Trisubstituted triazines” (Adir et Compagnie, priority 1991, dated 1993).

The test system of data set [1] is line DC-3F/AD. The experiment in a line: Flow cytometry: intracellular accumulation of adriamycin by cells of the line DC-3F/AD. In kind it is cell-based, Chinese hamster. Particulars: ADR 50 μM, 5 hours. From the text:
Also measured was the effect of the compounds on the intracellular concentration of the cytotoxic agent. In effect, the known compounds for reversing MDR act by increasing the intracellular concentration of cytotoxic agent. This effect is the consequence of inhibiting the action of gP 170 which is responsible for the efflux of the drug.
By measuring that fluorescence, it is thus possible to obtain a relative measurement of the intracellular concentration of ADR.
The cells 500×10^3 per ml were exposed simultaneously to ADR at a fixed concentration (50 μM) and to the tested compounds at various concentrations. After 5 hours' incubation, the intracellular accumulation of ADR was evaluated by FCM. […] The analysis of each of the samples was carried out on a total of 10,000 cells at a rate of 1,000 cells per second.
The results were presented in the form of linear histograms of the intracellular ADR fluorescence.
Expression of the results: for each of the histograms the mean fluorescence per channel (MEAN) was determined by the information system of the apparatus. For all experiments:
a negative control (cells without ADR) fixed the autofluorescence threshold.
a positive control (cells with ADR) determined the MEAN value=MN1.
the "test" tubes (cells with ADR and with compound) were used to determine, for each of the compounds and at each of the concentrations, the MEAN values=MN2.
The results are expressed in the form of variations from the mean fluorescence obtained for each of the "test" tubes (MN2) in relation to the mean fluorescence obtained with the positive control (MNl): VAR-MEAN=MN2-MN1. The parameter expressed is thus the increase in ADR fluorescence in the presence of the tested compounds.

Data set [2] relates to line DC-3F/AD. The experiment in a line: Cytotoxicity (Microculture Tetrazolium Assay): reversal of resistance to actinomycin D, line DC-3F/AD. In kind it is cell-based, Chinese hamster. Particulars: 4 days. An excerpt: The pharmacological study of the compounds of the present invention consisted first of all in an evaluation in vitro carried out on resistant cells. The parameter measured is the cytotoxicity of the antitumour drug, quantified in the absence and in the presence of the reversing compound.
The cells are distributed on microplates and exposed to the cytotoxic compounds (actinomycin D for line DC-3F/AD and adriamycin for line KB-Al) at 9 concentrations (2 by 2 series dilutions). The compounds tested for their capacity to reverse MDR are added at the same time as the cytotoxic agent.
The cells are then incubated for 4 days. […] The results are expressed as a reversion factor (RF): PG,29 [formula]

In the case of `C=CCNc1nc(NCC=C)nc(NCC(O)CN2CCC(NCC3c4ccccc4CCc4ccccc43)CC2)n1` (stereo not drawn) [Example 17, 2,4-diallylamino-6-{3-[4-(10,11-dihydro-5H-dibenzo[a,d]cyclohepten-5-ylmethylamino)piperidin-1-yl]-2-hydroxypropylamino}-1,3,5-triazine], the “VAR-MEAN (increase in ADR fluorescence), line DC-3F/AD” value in data set [1] (1.0 μM compound) was 9.4; in data set [1] (5.0 μM compound) it was 10.5; in data set [1] (10 μM compound) it was 12.6; in data set [1] ([…] compound) it was 11.0. Besides, the entries for the “Reversion factors (cytotoxicity) with the line DC-3F/AD” value (“Reversion factors (cytotoxicity)” below) in data set [2] (0.5 μM compound), in data set [2] (1 μM compound) and in data set [2] (5 μM compound) were 0.8, 0.8 and 1.1, respectively.
For `C=CCNc1nc(N)nc(N2CCC(NCC3c4ccccc4CCc4ccccc43)CC2)n1` [Example 18, 2-allylamino-4-amino-6-{4-[(10,11-dihydro-5H-dibenzo[a,d]cyclohepten-5-yl)methylamino]piperidin-1-yl}-1,3,5-triazine], the “VAR-MEAN (increase in ADR fluorescence), line DC-3F/AD” value is listed as 5.5 in data set [1] (1.0 μM compound), 6.7 in data set [1] (5.0 μM compound), 11.0 in data set [1] (10 μM compound) and 7.4 in data set [1] ([…] compound). The “Reversion factors (cytotoxicity)” value in data set [2] (0.5 μM compound) is recorded as 1.2; in data set [2] (1 μM compound) it was 3; in data set [2] (5 μM compound), 421.
In the case of `C=CCNc1nc(NCC=C)nc(N2CCC(CNC3c4ccccc4CCc4ccccc43)CC2)n1` [Example 23, 2,4-diallylamino-6-{4-[(10,11-dihydro-5H-dibenzo[a,d]cyclohepten-5-yl)aminomethyl]piperidin-1-yl}-1,3,5-triazine], the “VAR-MEAN (increase in ADR fluorescence), line DC-3F/AD” value in data set [1] (1.0 μM compound) came out at 10.0; in data set [1] (5.0 μM compound), 14.0; in data set [1] (10 μM compound) it was 20.5; in data set [1] ([…] compound), 14.6. Besides, the entries for the “Reversion factors (cytotoxicity)” value in data set [2] (1 μM compound) and in data set [2] (5 μM compound) were 1.4 and 173, respectively.
In the case of `C=CCNc1nc(NCC=C)nc(N2CCN(NCC3c4ccccc4CCc4ccccc43)CC2)n1` [Example 24, 2,4-diallylamino-6-{4-[(10,11-dihydro-5H-dibenzo[a,d]cyclohepten-5-yl)methylamino]piperazin-1-yl}-1,3,5-triazine], the “VAR-MEAN (increase in ADR fluorescence), line DC-3F/AD” value was found to be 12.8 in data set [1] (1.0 μM compound), 21.1 in data set [1] (5.0 μM compound), 28.2 in data set [1] (10 μM compound) and 16.9 in data set [1] ([…] compound). Moreover, the “Reversion factors (cytotoxicity)” value in data set [2] (0.5 μM compound) turned out to be 2.5; in data set [2] (1 μM compound), 14; in data set [2] (5 μM compound), 329.
As for `C=CCNc1nc(NCC=C)nc(N2CCN(CC3c4ccccc4CCc4ccccc43)CC2)n1` [Example 25, 2,4-diallylamino-6-{4-[(10,11-dihydro-5H-dibenzo[a,d]cyclohepten-5-yl)methyl]piperazin-1-yl}-1,3,5-triazine], the “VAR-MEAN (increase in ADR fluorescence), line DC-3F/AD” value came out at 9.9 in data set [1] (1.0 μM compound), 17.6 in data set [1] (5.0 μM compound), 24.5 in data set [1] (10 μM compound) and 14.7 in data set [1] ([…] compound). In addition, the “Reversion factors (cytotoxicity)” value in data set [2] (1 μM compound) was 13; in data set [2] (5 μM compound) it was 464.
Regarding `C=CCNc1nc(NCC=C)nc(N2CCC(N(C)CC3c4ccccc4CCc4ccccc43)CC2)n1` [Example 30, 2,4-diallylamino-6-{4-[N-((10,11-dihydro-5H-dibenzo[a,d]cyclohepten-5-yl)methyl)-N-methylamino]piperidin-1-yl}-1,3,5-triazine], the “VAR-MEAN (increase in ADR fluorescence), line DC-3F/AD” value in data set [1] (1.0 μM compound) is listed as 5.9; in data set [1] (5.0 μM compound), 17.8; in data set [1] (10 μM compound), 19.0; in data set [1] ([…] compound), 12.3. Besides, the “Reversion factors (cytotoxicity)” value is 2.3 in data set [2] (1 μM compound) and 834.0 in data set [2] (5 μM compound).
